This is an account of results in US20240391936A1, “TETRAHYDROTHIENO PYRIDINE DERIVATIVES AS DDRS INHIBITORS” (CHIESI FARMACEUTICI S.P.A., priority 2021, published 2024).

A value given as a limit tells only on which side of the number the result lay.

The target in assay [1] is T1, DDR1 (Homo sapiens, UniProt Q08345). Put plainly: DDR1 binding assay (LanthaScreen Europium Kinase Binding assay). Also noted: purchased Carna Biosciences. Conditions: binding assay, 5 nM DDR1, 20 nM Kinase Tracer 178; Ki from IC50 by Cheng-Prusoff; read-out: Ki DDR1. Here is the method:
(§1) DDR1 and DDR2 binding assays were performed using Life Technologies LanthaScreen™ Europium Kinase Binding assay. The compounds were incubated with 5 nM DDR1 (Carna Biosciences) or 5 nM DDR2 (Life Technologies) for 1 hour at room temperature in white 384-well OptiPlate (PerkinElmer), containing 20 nM or 10 nM Kinase Tracer 178 respectively and 2 nM Europium labelled anti-GST antibody (Life Technologies) in assay buffer (50 mM HEPES pH 7.5, 10 mM MgCl2, 1 mM EGTA and 0.01% BRIJ35).
(§2) The ratio of fluorescence emission 665 nm/615 nm after excitation at 340 nm was obtained using the Tecan Spark 20M plate reader. IC50 values were determined in GraphPad Prism 7.0 software, using 4 parameter model: log(inhibitor) vs. response. IC50 values were converted in Ki using the Cheng-Prusoff equation

For assay [2], the target named is T1, DDR1. The assay can be described thus: DDR1 cell based assay (PathHunter U2OS DDR1 assay). The conditions noted are these: U2OS-DDR1 cells, bovine Type II Collagen 20 μg/ml. Set-up: host or cells: U2OS-DDR1 (PathHunter). Here is the method:
The inhibition of DDR1 receptor activation by compounds was evaluated by PathHunter® U2OS DDR1 assay (Eurofins DiscoverX), according to the manufacturer's instructions. Briefly, U2OS-DDR1 cells were seeded in white 384-well plates at a density of 5000 cells/well and incubated for 2 hours at 37° C. and 5% CO2. Cells were then treated with compounds at different concentrations and incubated for 30 minutes, before stimulation with bovine Type II Collagen 20 μg/ml and incubation overnight at 37° C. and 5% CO2. PathHunter Detection Reagents were prepared according to the protocol provided by DiscoverX and 20 μl/well of this mix were added to each well. After incubating the plates for 1 hour at room temperature in the dark, luminescence signal was acquired with a plate reader. Raw data were normalized to vehicle control (0% for normalization) and positive control (100% for normalization; cells treated with 20 μg/ml collagen II) and IC50 parameters were calculated in GraphPad Prism 8.0 software, using sigmoidal dose-response curve fitting with variable slope.

In a further assay the target is T2, DDR2 (Homo sapiens, UniProt Q16832).
T2 sequence (Q16832 22-855): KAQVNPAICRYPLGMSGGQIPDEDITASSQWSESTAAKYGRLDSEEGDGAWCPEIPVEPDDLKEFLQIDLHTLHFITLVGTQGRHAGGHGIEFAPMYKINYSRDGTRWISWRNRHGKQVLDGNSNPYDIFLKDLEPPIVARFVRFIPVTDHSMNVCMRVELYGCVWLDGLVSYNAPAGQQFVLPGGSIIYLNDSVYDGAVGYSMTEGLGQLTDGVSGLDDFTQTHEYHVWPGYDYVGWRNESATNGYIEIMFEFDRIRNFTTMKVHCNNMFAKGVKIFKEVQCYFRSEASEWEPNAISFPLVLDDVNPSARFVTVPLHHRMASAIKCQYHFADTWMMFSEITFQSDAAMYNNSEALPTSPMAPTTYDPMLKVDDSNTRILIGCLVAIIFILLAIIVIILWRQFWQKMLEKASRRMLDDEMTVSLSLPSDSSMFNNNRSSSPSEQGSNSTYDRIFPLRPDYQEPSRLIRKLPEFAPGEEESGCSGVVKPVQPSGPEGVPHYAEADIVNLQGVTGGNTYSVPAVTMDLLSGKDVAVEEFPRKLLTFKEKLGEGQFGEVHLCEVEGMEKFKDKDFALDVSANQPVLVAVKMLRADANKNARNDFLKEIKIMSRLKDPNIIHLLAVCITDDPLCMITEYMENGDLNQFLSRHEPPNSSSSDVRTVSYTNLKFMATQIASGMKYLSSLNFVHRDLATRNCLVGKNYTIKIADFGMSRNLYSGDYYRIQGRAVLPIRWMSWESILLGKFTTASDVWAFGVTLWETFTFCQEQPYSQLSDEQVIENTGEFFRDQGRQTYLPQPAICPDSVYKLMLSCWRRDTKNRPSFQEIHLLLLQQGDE
Put plainly: DDR2 binding assay (LanthaScreen Europium Kinase Binding assay). Set-up: purchased Life Technologies. The conditions noted are these: binding assay, 5 nM DDR2, 10 nM Kinase Tracer 178; Ki from IC50 by Cheng-Prusoff; read-out: Ki DDR2. The procedure:
as §1, §2
In general terms: In TR-FRET formats the signal depends on donor and acceptor labels being close together.

What is called Ki is a measure of affinity in units of concentration, obtained from inhibition or displacement. What is called IC50 is the concentration at which inhibition is half-maximal. A low value points to higher potency.

T1 sequence (Q08345 19-913): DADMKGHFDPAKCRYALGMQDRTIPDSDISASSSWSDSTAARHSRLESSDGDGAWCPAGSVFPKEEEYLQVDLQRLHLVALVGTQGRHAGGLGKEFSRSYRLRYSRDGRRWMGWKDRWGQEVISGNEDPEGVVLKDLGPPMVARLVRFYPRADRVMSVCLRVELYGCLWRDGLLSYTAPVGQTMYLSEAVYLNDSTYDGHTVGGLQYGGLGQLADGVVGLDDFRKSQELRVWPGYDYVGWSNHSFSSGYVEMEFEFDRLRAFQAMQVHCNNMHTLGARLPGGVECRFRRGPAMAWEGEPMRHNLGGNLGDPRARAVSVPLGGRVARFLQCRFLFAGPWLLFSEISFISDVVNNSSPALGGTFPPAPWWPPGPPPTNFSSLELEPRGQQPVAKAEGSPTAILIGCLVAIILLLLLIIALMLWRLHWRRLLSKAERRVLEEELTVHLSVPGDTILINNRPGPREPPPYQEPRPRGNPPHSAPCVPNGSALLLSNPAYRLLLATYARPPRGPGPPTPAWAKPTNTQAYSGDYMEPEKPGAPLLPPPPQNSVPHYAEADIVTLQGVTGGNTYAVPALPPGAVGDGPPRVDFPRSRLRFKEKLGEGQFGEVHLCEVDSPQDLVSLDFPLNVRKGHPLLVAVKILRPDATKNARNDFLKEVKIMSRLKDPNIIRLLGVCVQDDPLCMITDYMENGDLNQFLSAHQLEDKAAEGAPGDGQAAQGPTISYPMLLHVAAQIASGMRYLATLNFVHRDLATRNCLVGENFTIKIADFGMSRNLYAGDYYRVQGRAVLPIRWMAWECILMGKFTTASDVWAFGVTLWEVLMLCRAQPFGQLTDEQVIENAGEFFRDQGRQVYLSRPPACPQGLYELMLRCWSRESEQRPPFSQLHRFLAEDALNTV

Consider `O=C(Nc1cc(C(F)(F)F)ncn1)c1csc2c1CCN(C(=O)c1cnc3ccccn13)C2` [Example 21, 6-(imidazo[1,2-a]pyridine-3-carbonyl)-N-(6-(trifluoromethyl)pyrimidin-4-yl)-4,5,6,7-tetrahydrothieno[2,3-c]pyridine-3-carboxamide], for which the Ki at DDR1 [1] and on DDR2 was below 25 nM in each case. The same compound showed an IC50 on DDR1 [2] of 25 to 50 nM.

As to `O=C(Nc1ccc(CN2CCCC2)c(C(F)(F)F)c1)c1csc2c1CCN(C(=O)c1cnc3ccccn13)C2` [Example 22, 6-(imidazo[1,2-a]pyridine-3-carbonyl)-N-(4-(pyrrolidin-1-ylmethyl)-3-(trifluoromethyl)phenyl)-4,5,6,7-tetrahydrothieno[2,3-c]pyridine-3-carboxamide], the Ki at DDR1 [1] and at DDR2 was below 25 nM throughout. The compound further yielded an IC50 at DDR1 [2] of 50 to 80 nM.

Turning to `CN(C)CCOc1cc(NC(=O)c2csc3c2CCN(C(=O)c2cnc4ccccn24)C3)cc(C(F)(F)F)c1` [Example 25, N-(3-(2-(dimethylamino)ethoxy)-5-(trifluoromethyl)phenyl)-6-(imidazo[1,2-a]pyridine-3-carbonyl)-4,5,6,7-tetrahydrothieno[2,3-c]pyridine-3-carboxamide], the Ki on DDR1 [1] and on DDR2 was below 25 nM each time. On DDR1 [2], this compound displayed a half-inhibitory concentration (IC50) of 25 to 50 nM.

Turning to `O=C(Nc1cc(OCCN2CCCC2)cc(C(F)(F)F)c1)c1csc2c1CCN(C(=O)c1cnc3ccccn13)C2` [Example 26, 6-(imidazo[1,2-a]pyridine-3-carbonyl)-N-(3-(2-(pyrrolidin-1-yl)ethoxy)-5-(trifluoromethyl)phenyl)-4,5,6,7-tetrahydrothieno[2,3-c]pyridine-3-carboxamide], the Ki on DDR1 [1] and on DDR2 was below 25 nM throughout. Also, the concentration for half-maximal inhibition (IC50) against DDR1 [2] was in the range of 25 to 50 nM.

In the case of `CN(C)Cc1ccc(NC(=O)c2csc3c2CCN(C(=O)c2cnc4ccccn24)C3)cc1C(F)(F)F` [Example 27], the Ki on DDR1 [1] and on DDR2 was below 25 nM each time. At DDR1 [2], this compound showed a 50% inhibitory concentration (IC50) of 25 to 50 nM.

`O=C(Nc1cncc(C(F)(F)F)c1)c1csc2c1CCN(C(=O)c1cnc3ccccn13)C2` [Example 28, 6-(imidazo[1,2-a]pyridine-3-carbonyl)-N-(5-(trifluoromethyl)pyridin-3-yl)-4,5,6,7-tetrahydrothieno[2,3-c]pyridine-3-carboxamide]: the Ki at DDR1 [1] and on DDR2 was below 25 nM throughout. The IC50 against DDR1 [2] is below 25 nM.

Regarding `O=C(Nc1cc(C(F)(F)F)ccn1)c1csc2c1CCN(C(=O)c1cnc3ccccn13)C2` [Example 29, 6-(imidazo[1,2-a]pyridine-3-carbonyl)-N-(4-(trifluoromethyl)pyridin-2-yl)-4,5,6,7-tetrahydrothieno[2,3-c]pyridine-3-carboxamide], the Ki on DDR1 [1] and at DDR2 was below 25 nM in each case. Moreover, the half-inhibitory concentration (IC50) at DDR1 [2] fell in the range of 50 to 80 nM.

Consider `O=C(Nc1nccc(C(F)(F)F)n1)c1csc2c1CCN(C(=O)c1cnc3ccccn13)C2` [Example 30, 6-(imidazo[1,2-a]pyridine-3-carbonyl)-N-(4-(trifluoromethyl)pyrimidin-2-yl)-4,5,6,7-tetrahydrothieno[2,3-c]pyridine-3-carboxamide], for which the Ki at DDR1 [1] and at DDR2 was below 25 nM in each case. For the same compound, on DDR1 [2], the IC50 was in the range of 50 to 80 nM.

For `CN1CCC(Oc2ccc(NC(=O)c3csc4c3CCN(C(=O)c3cnc5ccccn35)C4)cc2C(F)(F)F)C1` (stereo not drawn) [Example 31, 6-(imidazo[1,2-a]pyridine-3-carbonyl)-N-(4-((1-methylpyrrolidin-3-yl)oxy)-3-(trifluoromethyl)phenyl)-4,5,6,7-tetrahydrothieno[2,3-c]pyridine-3-carboxamide], the Ki at DDR1 [1] and at DDR2 was below 25 nM throughout. This compound also registered an IC50 against DDR1 [2] of 50 to 80 nM.
